Results taken from patent publication US8889667B2 (Agios Pharmaceuticals, Inc, priority 2010, dated 2014).

Target: PKM2 (Homo sapiens, UniProt P14618)
Assay: PKM2 Assay (activation, LDH-coupled, absorbance at 340 nm)
Assay type: biochemical
Conditions: Table 4
Summary of the method: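 Human PKM2 (50 ng/well) was preincubated with compound and coupling mix for 30 min at 4 °C without ADP. Reactions were then started with ADP (0.7 mM) alongside PEP 0.15 mM, NADH 180 μM and LDH, in Tris pH 7.5/KCl/MgCl2/DTT/BSA buffer. A340 was followed at 25 °C and activation reported as AC50.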

PKM2, sequence (P14618 whole entry): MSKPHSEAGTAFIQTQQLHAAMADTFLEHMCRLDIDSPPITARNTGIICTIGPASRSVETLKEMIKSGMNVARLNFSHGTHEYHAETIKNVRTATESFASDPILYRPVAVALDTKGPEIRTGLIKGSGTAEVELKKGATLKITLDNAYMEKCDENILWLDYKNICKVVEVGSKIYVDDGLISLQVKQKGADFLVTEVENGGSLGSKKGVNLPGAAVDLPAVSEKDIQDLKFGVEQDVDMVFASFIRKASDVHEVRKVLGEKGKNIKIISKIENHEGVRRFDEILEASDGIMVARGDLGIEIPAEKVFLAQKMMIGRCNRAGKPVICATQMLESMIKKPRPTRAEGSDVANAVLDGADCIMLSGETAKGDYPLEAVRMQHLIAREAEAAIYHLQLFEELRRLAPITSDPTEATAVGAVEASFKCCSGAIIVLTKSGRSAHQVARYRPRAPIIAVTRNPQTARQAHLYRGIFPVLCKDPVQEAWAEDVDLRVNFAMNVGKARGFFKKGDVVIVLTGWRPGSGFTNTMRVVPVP

AC50: 0.1 to 0.5 µM
Substance: N-(4-(3,5-dimethylpiperazine-1-carbonyl)phenyl)quinoline-8-sulfonamide [Compound 104]
